Source: publication PMC6704710, “Preclinical evaluation of 3D185, a novel potent inhibitor of FGFR1/2/3 and CSF-1R, in FGFR-dependent and macrophage-dominant cancer models” (Journal of Experimental & Clinical Cancer Research : CR, 2019)

Key:
Assay in all cases: Eurofins kinase panel
Format in all cases: biochemical
Settings in all cases: read-out: Inhibition rate (%)
[1] = target: T1, MYO3B(h) (Homo sapiens, UniProt Q8WXR4)
T1 construct: purchased Eurofins (KinaseProfiler)
T1 sequence (Q8WXR4 1-1341): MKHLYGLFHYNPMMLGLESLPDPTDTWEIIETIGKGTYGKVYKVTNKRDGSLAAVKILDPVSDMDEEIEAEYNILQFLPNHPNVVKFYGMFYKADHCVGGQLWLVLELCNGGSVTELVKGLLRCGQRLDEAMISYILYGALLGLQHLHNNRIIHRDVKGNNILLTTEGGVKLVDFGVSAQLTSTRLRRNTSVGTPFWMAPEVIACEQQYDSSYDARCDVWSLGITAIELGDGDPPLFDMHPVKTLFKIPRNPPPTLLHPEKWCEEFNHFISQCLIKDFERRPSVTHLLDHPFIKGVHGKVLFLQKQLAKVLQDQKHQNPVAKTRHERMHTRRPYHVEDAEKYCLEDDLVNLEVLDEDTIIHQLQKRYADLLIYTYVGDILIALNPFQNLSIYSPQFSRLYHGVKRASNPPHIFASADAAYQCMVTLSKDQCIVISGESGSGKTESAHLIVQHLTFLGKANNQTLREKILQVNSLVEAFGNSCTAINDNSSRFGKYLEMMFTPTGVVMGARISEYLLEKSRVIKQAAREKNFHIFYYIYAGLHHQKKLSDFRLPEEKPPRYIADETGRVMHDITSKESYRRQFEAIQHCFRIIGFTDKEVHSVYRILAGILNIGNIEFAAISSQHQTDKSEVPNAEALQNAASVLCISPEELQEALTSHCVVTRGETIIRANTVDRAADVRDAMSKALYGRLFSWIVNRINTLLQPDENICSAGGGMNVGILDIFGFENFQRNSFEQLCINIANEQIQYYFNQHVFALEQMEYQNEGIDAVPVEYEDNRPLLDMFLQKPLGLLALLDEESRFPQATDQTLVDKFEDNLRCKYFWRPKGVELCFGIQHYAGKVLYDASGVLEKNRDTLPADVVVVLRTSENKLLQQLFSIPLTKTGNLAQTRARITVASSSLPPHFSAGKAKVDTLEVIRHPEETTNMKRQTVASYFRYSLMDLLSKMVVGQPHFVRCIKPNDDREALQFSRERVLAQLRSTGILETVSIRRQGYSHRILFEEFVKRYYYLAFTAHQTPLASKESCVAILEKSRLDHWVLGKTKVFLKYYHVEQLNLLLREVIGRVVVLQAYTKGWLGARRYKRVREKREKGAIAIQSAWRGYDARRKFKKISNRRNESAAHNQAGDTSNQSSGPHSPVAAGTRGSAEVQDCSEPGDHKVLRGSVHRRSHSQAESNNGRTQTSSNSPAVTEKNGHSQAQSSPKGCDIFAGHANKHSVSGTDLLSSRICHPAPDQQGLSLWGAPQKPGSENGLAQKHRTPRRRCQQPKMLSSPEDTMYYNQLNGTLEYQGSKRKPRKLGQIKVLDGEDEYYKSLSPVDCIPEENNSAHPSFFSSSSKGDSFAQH

[2] = target: T2, AMPKα1(h) (Homo sapiens, UniProt Q13131)
T2 construct: purchased Eurofins (KinaseProfiler)
T2 sequence (Q13131 whole entry): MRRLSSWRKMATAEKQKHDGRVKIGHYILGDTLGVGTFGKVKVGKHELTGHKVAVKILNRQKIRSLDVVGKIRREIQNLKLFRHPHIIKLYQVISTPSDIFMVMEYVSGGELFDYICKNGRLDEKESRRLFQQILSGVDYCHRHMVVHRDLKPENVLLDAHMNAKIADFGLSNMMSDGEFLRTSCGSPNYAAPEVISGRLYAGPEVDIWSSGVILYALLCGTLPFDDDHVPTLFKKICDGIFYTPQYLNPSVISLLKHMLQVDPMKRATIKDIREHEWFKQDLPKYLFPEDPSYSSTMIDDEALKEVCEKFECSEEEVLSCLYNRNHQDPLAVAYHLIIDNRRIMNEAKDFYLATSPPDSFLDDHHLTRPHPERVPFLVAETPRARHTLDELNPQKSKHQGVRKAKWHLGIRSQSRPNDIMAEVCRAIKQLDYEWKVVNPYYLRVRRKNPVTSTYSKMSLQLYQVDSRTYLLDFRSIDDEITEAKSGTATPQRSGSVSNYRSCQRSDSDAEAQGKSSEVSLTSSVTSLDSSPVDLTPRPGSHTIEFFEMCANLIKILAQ
T2 sequence (Q9Y478 whole entry partner): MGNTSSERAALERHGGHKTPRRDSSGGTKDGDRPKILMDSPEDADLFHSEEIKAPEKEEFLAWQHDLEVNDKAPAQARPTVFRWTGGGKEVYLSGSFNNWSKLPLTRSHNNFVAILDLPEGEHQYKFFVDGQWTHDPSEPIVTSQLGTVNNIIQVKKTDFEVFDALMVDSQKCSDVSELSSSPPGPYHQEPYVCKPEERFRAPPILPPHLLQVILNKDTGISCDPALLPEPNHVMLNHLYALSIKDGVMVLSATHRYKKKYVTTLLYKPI
T2 sequence (P54619 whole entry partner): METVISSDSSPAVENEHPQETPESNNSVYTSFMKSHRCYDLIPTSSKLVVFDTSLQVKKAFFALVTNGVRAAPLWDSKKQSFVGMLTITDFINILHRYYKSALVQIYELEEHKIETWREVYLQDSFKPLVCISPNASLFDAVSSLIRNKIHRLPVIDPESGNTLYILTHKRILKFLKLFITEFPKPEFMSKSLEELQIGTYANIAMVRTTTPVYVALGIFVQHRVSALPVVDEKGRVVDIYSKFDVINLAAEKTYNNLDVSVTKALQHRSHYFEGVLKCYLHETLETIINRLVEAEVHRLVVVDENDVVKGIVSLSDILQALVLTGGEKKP

[3] = target: T3, Tec(h) activated (Homo sapiens, UniProt P42680)
T3 construct: purchased Eurofins (KinaseProfiler)
T3 sequence (P42680 1-631): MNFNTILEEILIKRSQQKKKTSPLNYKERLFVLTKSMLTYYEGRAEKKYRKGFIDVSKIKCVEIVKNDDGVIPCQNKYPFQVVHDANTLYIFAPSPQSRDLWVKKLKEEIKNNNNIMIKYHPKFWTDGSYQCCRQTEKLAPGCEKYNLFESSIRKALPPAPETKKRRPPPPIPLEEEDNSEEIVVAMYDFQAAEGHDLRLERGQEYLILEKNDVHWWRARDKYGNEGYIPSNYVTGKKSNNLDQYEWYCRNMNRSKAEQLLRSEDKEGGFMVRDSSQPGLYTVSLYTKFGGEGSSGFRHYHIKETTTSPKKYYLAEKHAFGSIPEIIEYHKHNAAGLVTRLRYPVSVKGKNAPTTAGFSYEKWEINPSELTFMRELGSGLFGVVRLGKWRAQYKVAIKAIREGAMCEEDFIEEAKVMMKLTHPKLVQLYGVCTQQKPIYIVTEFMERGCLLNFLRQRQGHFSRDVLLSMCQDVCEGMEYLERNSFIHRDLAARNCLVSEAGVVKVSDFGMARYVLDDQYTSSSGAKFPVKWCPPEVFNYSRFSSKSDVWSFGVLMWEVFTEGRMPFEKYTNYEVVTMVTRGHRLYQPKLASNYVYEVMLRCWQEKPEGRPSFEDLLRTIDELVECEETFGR

[4] = target: T4, NLK(h) (Homo sapiens, UniProt Q9UBE8)
T4 construct: purchased Eurofins (KinaseProfiler)
T4 sequence (Q9UBE8 1-527): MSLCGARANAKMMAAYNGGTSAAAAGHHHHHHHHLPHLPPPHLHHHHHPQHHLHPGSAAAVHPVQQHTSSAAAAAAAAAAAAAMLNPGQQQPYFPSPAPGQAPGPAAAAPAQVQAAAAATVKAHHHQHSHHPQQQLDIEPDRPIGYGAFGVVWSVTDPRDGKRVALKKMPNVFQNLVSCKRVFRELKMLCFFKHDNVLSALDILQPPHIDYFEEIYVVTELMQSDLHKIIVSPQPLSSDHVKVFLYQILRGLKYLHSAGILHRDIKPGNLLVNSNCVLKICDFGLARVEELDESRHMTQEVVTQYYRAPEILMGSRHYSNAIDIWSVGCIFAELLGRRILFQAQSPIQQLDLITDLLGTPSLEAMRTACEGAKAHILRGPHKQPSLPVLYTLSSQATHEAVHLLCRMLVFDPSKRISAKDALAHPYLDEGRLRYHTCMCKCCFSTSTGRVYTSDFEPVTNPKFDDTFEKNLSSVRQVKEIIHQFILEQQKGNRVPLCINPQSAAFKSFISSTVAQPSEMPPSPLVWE

[5] = target: T5, CDK5/p35(h) (Homo sapiens, UniProt Q00535)
T5 construct: purchased Eurofins (KinaseProfiler)
T5 sequence (Q00535 whole entry): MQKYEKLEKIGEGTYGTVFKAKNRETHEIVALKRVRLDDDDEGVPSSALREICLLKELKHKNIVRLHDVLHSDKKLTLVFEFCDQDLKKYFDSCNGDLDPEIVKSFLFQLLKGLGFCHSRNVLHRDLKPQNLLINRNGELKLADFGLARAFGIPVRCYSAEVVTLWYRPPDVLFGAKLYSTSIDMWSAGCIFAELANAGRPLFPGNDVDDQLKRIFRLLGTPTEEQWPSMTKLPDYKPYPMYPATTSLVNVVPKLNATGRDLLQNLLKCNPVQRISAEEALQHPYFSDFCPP
T5 sequence (Q15078 whole entry partner): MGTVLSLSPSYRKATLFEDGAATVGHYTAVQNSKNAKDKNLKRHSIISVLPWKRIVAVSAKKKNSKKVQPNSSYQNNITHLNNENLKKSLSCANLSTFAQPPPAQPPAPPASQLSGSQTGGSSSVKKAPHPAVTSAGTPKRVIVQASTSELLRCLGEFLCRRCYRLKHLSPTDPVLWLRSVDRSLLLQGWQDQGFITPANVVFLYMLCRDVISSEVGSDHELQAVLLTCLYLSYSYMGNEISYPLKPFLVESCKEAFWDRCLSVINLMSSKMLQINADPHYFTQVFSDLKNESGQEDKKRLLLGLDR

With `COc1cc(OC)c(Cl)c(-c2ccc3c(NC(=O)c4ccc(N5CCNC(C)(C)C5)cc4)n[nH]c3n2)c1Cl` [3D185] as the compound, how does the inhibition at 0.01 µM ([1]; 10 nM) read?
Its inhibition at 0.01 µM is -4%.

And the inhibition at 0.1 µM ([1]; 100 nM)?
The inhibition at 0.1 µM was 0%.

What about the inhibition at 1 µM ([1]; 1000 nM) of the same compound?
Its inhibition at 1 µM is 7%.

What about the inhibition at 0.01 µM ([2]; 10 nM) of the same compound?
The inhibition at 0.01 µM was -8%.

What about the inhibition at 0.1 µM ([2]; 100 nM) of the same compound?
The inhibition at 0.1 µM was -6%.

And the inhibition at 1 µM ([2]; 1000 nM)?
Its inhibition at 1 µM is -13%.

And the inhibition at 0.01 µM ([3]; 10 nM)?
Its inhibition at 0.01 µM is 3%.

What about the inhibition at 0.1 µM ([3]; 100 nM) of the same compound?
The inhibition at 0.1 µM was 9%.

And the inhibition at 1 µM ([3]; 1000 nM)?
Its inhibition at 1 µM is 23%.

And the inhibition at 0.01 µM ([4]; 10 nM)?
The inhibition at 0.01 µM was 0%.

And the inhibition at 0.1 µM ([4]; 100 nM)?
The inhibition at 0.1 µM was -6%.

And the inhibition at 1 µM ([4]; 1000 nM)?
The inhibition at 1 µM was 3%.

And the inhibition at 0.01 µM ([5]; 10 nM)?
The inhibition at 0.01 µM was 19%.

What about the inhibition at 0.1 µM ([5]; 100 nM) of the same compound?
The inhibition at 0.1 µM was 17%.

And the inhibition at 1 µM ([5]; 1000 nM)?
The inhibition at 1 µM was 12%.
